These results are taken from patent US20260365692A1, “COMPOSITIONS COMPRISING PROTEINS DISSOLVED IN FLUORINATED SOLVENTS, AND METHODS OF MAKING AND USING THE SAME” (priority 2022, published 2026).

In one data set the test system is proteinase K. In words: β-Gal activity after proteinase K exposure. It is filed as physicochemical. As to conditions: 24 hours. An excerpt:
FIGS. 54A-54C depict the relative activity of the β-Gal protein dispersed in PBS or PFOc solvents without and with contamination by (FIG. 54A) proteinase K, (FIG. 54B) bleach or (FIG. 54C) hydrochloric acid. Data shown as average±s.d. of n=3 technical replicates. Statistical significance between conditions is indicated by a line using unpaired Student's t-test with n.s.=not significant, * p<0.05, ** p<0.01, and *** p<0.001.
An equal volumetric amount of β-Gal and proteinase K stocks were mixed and incubated together for 24 hours. The remaining active β-Gal was evaluated by adding ONPG substrate diluted in PBS at 4 mg/mL directly to the samples. This action eluted β-Gal from PFOc solvent and immediately starting ONPG conversion without further β-Gal disruption from residue proteinase K that was also eluted into aqueous buffer. The enzymatic activity was calculated from measuring absorbance (420 nm) after 15-minute conversion. […] A likely explanation for this is that the proteinase K protein is also coated by the PD-7 additive after addition to the PFOc solvent, leading to its segregation from the co-dispersed β-Gal protein.

The nature of data set [1]: Pharmacokinetics of β-Gal in C57BL/6J mice (Example 3). In kind it is in vivo. The note with it: i.v. tail vein. The procedure: Two groups (n=5) of C57BL/6J mice received […] of 10 μM solutions of β-Gal that was either 1) prepared in sterile PBS or 2) dissolved in PFOc (1 mM PFNA) and extracted into sterile PBS. Due to the large solution volumes given (150 μL, ~15% of mouse blood volume), PFOc dispersed proteins were extracted into sterile saline before injection to avoid hyponatremia. Samples were administered by tail vein injection.
At a series of time points, mice were sacrificed, and blood samples collected via cardiac puncture. Bioactivity and bioavailability of β-Gal was determined by conversion of the fluorescent substrate, 4-Methylumbelliferyl-[…] (β-GAL). Whole blood collected in a serum tube was centrifuged at 2000 rcf for 4 minutes to extract serum containing β-Gal protein. 20 μL of the serum was then mixed with 180 μL μ-GAL (for a final substrate concentration of 1 μM). Samples were quickly pipette mixed and incubated in the dark at room temperature for 5 minutes. Fluorescent intensity was measured with λex=360 nm and λem=440 nm. The background fluorescent intensity from serum was determined from serum dilution in PBS without μ-GAL substrate.

In a further data set the test system is rabbit serum IgG. In words: Circular dichroism with PFNA, rabbit serum IgG. As to conditions: 0.001-1 mM PFNA. The text has this:
FIGS. 14A-14L depict circular dichroism spectra of Hb (FIG. 14A), GFP (FIG. 14B), BSA (FIG. 14C), β-Gal (FIG. 14D), rabbit serum IgG (FIG. 14E), transferrin (FIG. 14F), and urease (FIG. 14G) in the absence (black line) or presence (dashed lines) of PFNA. Increasing dash sequence indicated higher concentration of PFNA. FIG. 14H: Change in molar ellipticity at 216 nm (Δθ216) of PFNA-treated proteins, relative to native controls, as a function of increasing ligand concentration. FIG. 14I: Percentage change in secondary structural motifs of Hb, β-Gal and IgG between the native protein and 1 mM PFNA treated samples. β-sheet structures were further differentiated into parallel and antiparallel conformations. Hb, β-Gal and IgG were prioritized for analysis based on their significant spectral shift in the presence of 1 mM PFNA. FIGS. 14J-14L: Sensograms for BSA (FIG. 14J), β-gal (FIG. 14K), and IgG (FIG. 14L) showing relative response (R.U.) at 10, 25, 50, 75, and 100 μM.
To explore PFNA-mediated changes in protein structure, dose-response circular dichroism (CD) studies were performed (FIG. 14A-14G). […] Remarkably, these structural changes endured even at sub-stoichiometric PFNA:protein ratios (see 0.001 mM PFNA in […]; protein concentration was constant at 0.01 mM).
(Circular dichroism is widely used to follow secondary structure.)

The next data set has as its system IgG. Put plainly: Isothermal titration calorimetry, IgG. It is filed as binding, rabbit. The text has this:
To test this assertion, PFNA binding to three exemplary proteins, BSA, β-Gal and IgG, was studied via isothermal titration calorimetry (ITC) and surface plasmon resonance (SPR) techniques. […] SPR analysis yielded similar results, with sensorgrams (FIGS. 14J-14L) that diverged from a simple 1:1 ligand-protein model. […] Similar phenomenon may explain the negative signals of the SPR data and further support the ability of PFNA to modulate the conformational plasticity of adsorbed proteins.

Another data set deals with A549 cells. Put plainly: Protein uptake in A549 cells, Texas Red-labeled Transferrin. It is filed as cell-based, human. The note with it: PFNA, 24 hours of incubation. On the procedure: FIGS. 19A-19B depicts the uptake of Texas Red-labeled Transferrin in human lung A549 cells after 2 and 24 hours of incubation in the absence/presence of PFNA. Results are shown in relative fluorescence units (RFU).
Multiplexed in vitro assays were employed to probe the influence of PFNA interactions on protein uptake and transport in cells. A549 and PC9 human lung cells were prioritized for these assays given that pulmonary tissue is a primary site of perfluoroalkyl bioaccumulation in humans (Reference: 63). Before initiating experiments, cellular toxicity assays established a maximum tolerated dose of PFNA to avoid confounding protein transport experiments with substantive cell death. Protein uptake was then studied using green fluorescent protein (GFP) and bovine serum albumin (BSACy5) as model biologics that employ non-specific pinocytic mechanisms for cellular entry.

For data set [2], the system named is bovine serum albumin (BSA), β-Galactosidase (β-Gal), rabbit serum immunoglobulin (IgG), and bovine trypsin. Put plainly: Dispersion efficiency of four model proteins in PFOc (Example 4). In kind it is physicochemical. As to conditions: PD:protein molar ratio 1000:1. The procedure: These compounds were screened to evaluate their ability to disperse four model proteins, bovine serum albumin (BSA), β-Galactosidase (β-Gal), rabbit serum immunoglobulin (IgG), and bovine trypsin into the PFOc solvent. […] […] The samples were then briefly vortexed/sonicated then constantly mixed overnight to ensure proper fluorine dispersion. After that, samples were centrifuged at 1950 g for 5 minutes to remove non-dispersed portion, and 100 μL supernatant of dispersed protein sample was transferred into each well of 96-well plate. PFHx solvent was let evaporate at 37 °C for two hours. The remaining protein residue was redissolved in […] PBS, and an equal volume of Coomassie solution was added to the sample. In addition, protein prepared in PBS and PFHx (without PFNA) were also identically processed and included as positive and negative control. Lastly, the amount of protein was quantified by taking absorbance of converted Coomassie solution at 595 nm. Dispersion efficiency was calculated as follows:

Another data set concerns the target BSA (Bos taurus, UniProt P02769). In words: 19F NMR of PFNA with BSA. In kind it is binding, bovine. An excerpt:
This further supported the conclusion that, like TFE, adsorption of PFNA to protein surfaces aligned the fluorinated tail parallel to the solvent accessible exterior, with further stabilization via F . . . H bonding with surface N—H groups (FIG. 12, FIGS. 12A-12E, and FIG. 13). This ultimately generated the fluorine rich coating that altered water accessibility and promoted secondary structure.

Chain of BSA (P02769 25-607): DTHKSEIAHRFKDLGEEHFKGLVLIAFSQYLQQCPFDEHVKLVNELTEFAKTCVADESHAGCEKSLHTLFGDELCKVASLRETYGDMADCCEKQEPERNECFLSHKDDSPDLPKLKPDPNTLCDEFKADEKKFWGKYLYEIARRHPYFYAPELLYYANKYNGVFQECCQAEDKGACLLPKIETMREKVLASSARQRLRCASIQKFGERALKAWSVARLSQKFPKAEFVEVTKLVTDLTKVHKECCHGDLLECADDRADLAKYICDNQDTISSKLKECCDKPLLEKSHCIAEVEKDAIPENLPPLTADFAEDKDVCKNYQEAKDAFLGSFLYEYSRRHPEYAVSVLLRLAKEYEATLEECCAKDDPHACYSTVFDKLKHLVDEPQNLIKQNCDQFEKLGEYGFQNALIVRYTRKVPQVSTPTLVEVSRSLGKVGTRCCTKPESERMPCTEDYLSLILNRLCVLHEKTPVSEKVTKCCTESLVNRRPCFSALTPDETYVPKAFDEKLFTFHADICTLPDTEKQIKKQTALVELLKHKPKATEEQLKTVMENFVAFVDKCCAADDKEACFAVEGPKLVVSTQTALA

“β-Gal: β-Galactosidase (β-Gal), dissolved in PBS/saline or dispersed in PFOc”: the results for the “β-Gal activity in presence of proteinase K” value in the data set with proteinase K (PFOc formulation) and in the data set with proteinase K (dissolved in PBS) were “no statistically significant change in activity” and “completely inactivated”, respectively. For the same compound, the “serum half-life t1/2” value worked out at 6.6 min in data set [1] (native β-Gal administered in saline) and 7.9 min in data set [1] (β-Gal delivered from PFOc dispersion (1 mM PFNA), extracted into saline).
For `O=C(O)C(F)(F)C(F)(F)C(F)(F)C(F)(F)C(F)(F)C(F)(F)C(F)(F)C(F)(F)F` [Compound 7, perfluoronanonic acid], in the data set on rabbit serum IgG, the “CD structural change, rabbit serum IgG” value is given as “marked increase in β-sheet content”. Besides, the “evolution of heat (ITC)” value in the data set with IgG is reported as “no significant evolution of heat”. For the same compound, the “increase in cellular fluorescence (Transferrin uptake) compared to native protein” value in the data set on A549 cells was 43%. In addition, in data set [2], the dispersion efficiency is recorded as at most 50%. Moreover, the “19F NMR peak change upon interaction” value on BSA was “broadening of PFNA's peaks”.
